The series is described as follows: Rat PK study (IV 1 mg/kg and PO 5 mg/kg). Type of series: in vivo, male SD rats. Particulars: for AUC(0-t) / clearance / half-life / Vd / Cmax: male, SD, rat, plasma; for clearance: read-out: IV Cl; for Vd: read-out: IV Vz. The procedure:
According to standard methods for rat PK studies in this field, the rat PK tests for the representative compounds of this disclosure and the positive control compound (11a-1) were conducted as follows.
Specifically, six male SD rats (6-8 weeks old, weighing 200 ± 20 g, purchased from Vital River Laboratories) were randomly divided into two groups of three rats each, for intravenous (IV) and oral gavage (PO) administration, respectively.
For the intravenous injection group: the test compound was weighed according to the administration dose (1 mg/kg), dissolved using the solvent listed in the table below to obtain a clear solution of 1 mg/mL, and administered to the rats via tail vein injection at a dose of 1 mg/kg. […]
Blood was collected via jugular vein puncture at various time points: 0.083, 0.25, 0.5, 1, 2, 4, 6, 8, and 24 hours. 0.2 mL of whole blood was collected at each time point, placed in a 1.5 mL anticoagulant tube containing EDTA, and placed on a sample plate containing wet ice until centrifugation; after centrifugation at 8000 rpm for 10 minutes at 4°C, 0.1 mL of plasma sample was collected and stored in an […] cryovial at -20°C until analysis.
Preparation of the stock solution of the test compound: 1 mg of the test compound was accurately weighed, dissolved in 1 mL of DMSO to prepare a 1 mg/mL stock solution S1, and stored in a 4°C refrigerator until use.
Preparation of the internal standard working solution: 0.1 mL of tolbutamide (2 mg/mL) internal standard stock solution was pipetted into 1000 mL of acetonitrile to prepare a 200 ng/mL internal standard working solution, which is used as a protein precipitant in sample pretreatment. The prepared internal standard working solution was stored at 4°C and valid for 12 months.
Preparation of the standard curve and quality control sample working solutions: 50 µL of the 1 mg/mL test compound DMSO stock solution S1 was diluted with 950 µL of 100% methanol solution to obtain a working solution with a concentration of 50000 ng/mL. Then, the 50000 ng/mL working solution was serially diluted with 100% methanol solution to obtain a series of standard curve working solutions with concentrations of 10, 20, 50, 100, 500, 1000, 5000, 10000, 20000, and 50000 ng/mL. 40 µL of the 1 mg/mL test compound DMSO stock solution S1 was diluted with 960 µL of 100% methanol solution to obtain a quality control sample working solution with a concentration of 40000 ng/mL. An appropriate amount of this working solution was diluted appropriately to prepare quality control sample working solutions with concentrations of 8000 and 16000 ng/mL. 60 µL of the 50 ng/mL test compound DMSO standard curve working solution was diluted with 40 µL of 100% methanol solution to obtain a quality control sample working solution with a concentration of 30 ng/mL.
Plasma sample treatment: standard curve and quality control samples for the test compound in plasma were prepared by diluting 5 µL of working solutions of different concentrations of the test compound for the standard curve and quality control samples in 45 µL of blank rat plasma, resulting in final concentrations of 1, 2, 5, 10, 50, 100, 500, 1000, 2000, and 5000 ng/mL for the standard curve and final concentrations of 3, 800, 1600, and 4000 ng/mL for the quality control samples.
Plasma sample pretreatment: 50 µL of the plasma sample was transferred to a 96-well plate, added with 500 µL of acetonitrile containing 200 ng/mL tolbutamide as an internal standard for protein precipitation, and centrifuged at 4000 rpm for 20 minutes at 2-8 °C. 300 µL of the supernatant was transferred to a new labeled 96-well plate, mixed thoroughly with 300 µL of 0.1% formic acid in water, and injected 10 µL into LC-MS/MS (API-4000 Qtrap-Shimadzu Controller-CBM20A).
The internal standard method was used for sample analysis. Data acquisition and analysis were performed using Analyst 1.6.3. […]

Setting [1] is: 1 mg/kg, IV, dose 1 mpk, read-out: IV AUC 0->t.
Setting [2] is: 1 mg/kg, IV, dose 1 mpk, read-out: IV T1/2 (converted).
Setting [3] is: 5 mg/kg, PO, dose 5 mpk, read-out: PO AUC 0->t.
[4] abbreviates: 5 mg/kg, PO, dose 5 mpk, read-out: PO T1/2 (converted).

Each structure is given as a SMILES string. Where two headings read alike, the source gives them in different places.

Turning to `Cn1c(-c2cccc(NC(=O)C(=O)Nc3ccc(-c4ccsc4)cc3)c2)c(I)c2cc(C(=O)O)c(O)cc21` [Example 11a-1, reference compound], the “PO F” value (PO, dose 10 mpk (IV 1 mpk)) came to 0.07%. Moreover, the AUC(0-t) (usually exposure summed from dosing to a finite time, without extrapolation to infinity) came to 4230 ng·h/mL under setting [1] and 30 ng·h/mL (10 mg/kg, PO, dose 10 mpk, read-out: PO AUC 0->t). Besides, the clearance (1 mg/kg, IV, dose 1 mpk) was found to be 4 mL/min/kg. The half-life runs as follows: under setting [2], 4.06 h; (10 mg/kg, PO, dose 10 mpk, read-out: PO T1/2 (converted)) 1.1 h. For the same compound, the Vd (1 mg/kg, IV, dose 1 mpk) was 1.42 L/kg. Under “10 mg/kg, PO, dose 10 mpk”, the Cmax (as a rule, the maximum level reached in the sampled fluid or tissue) stood at 44.2 ng/mL.
On to `CC1(n2c(-c3ccc(NC(=O)C(=O)Nc4ccc(N5CCC6(CCOC6)CC5)cc4)cc3)cc3cc(F)c(-c4nnn[nH]4)cc32)CCC1` [Example 68], for which the “PO F” value (PO, dose 5 mpk (IV 1 mpk)) is recorded as 30.5%. For the same compound, the AUC(0-t) under setting [1] turned out to be 1380 ng·h/mL and the AUC(0-t) under setting [3] is 2100 ng·h/mL. Further, the clearance (1 mg/kg, IV, dose 1 mpk) stood at 12.6 mL/min/kg. Further, the half-life under setting [2] is 1.63 h and the half-life under setting [4] is 4.31 h. Moreover, the Vd (1 mg/kg, IV, dose 1 mpk) worked out at 1.57 L/kg. The compound also showed a Cmax (5 mg/kg, PO, dose 5 mpk) of 150 ng/mL.
Consider `O=C(Nc1ccc(-c2cc3cc(F)c(-c4nnn[nH]4)cc3n2C2CCC2)cc1)C(=O)Nc1ccc(N2CCC(CO)CC2)cc1` [Example 23], for which the “PO F” value (PO, dose 5 mpk (IV 1 mpk)) was found to be 52.7%. For the same compound, the AUC(0-t) reads like this: under setting [1], 2840 ng·h/mL; under setting [3], 8010 ng·h/mL. Further, the clearance (1 mg/kg, IV, dose 1 mpk) was determined as 5.45 mL/min/kg. Moreover, the half-life is, setting by setting: under setting [2], 8.49 h; under setting [4], 3.17 h. Besides, the Vd (1 mg/kg, IV, dose 1 mpk) is 4.01 L/kg. Further, where the note is “5 mg/kg, PO, dose 5 mpk”, the Cmax is 1140 ng/mL.

Source of the values: patent EP4741383A1, “COMPOUND AND USE THEREOF AS ANTI-CANCER DRUG” (Tyligand Bioscience (Shanghai) Limited, priority 2023, dated 2025).
